{
  "source": "ChEMBL document CHEMBL1201862",
  "about": "“PubChem BioAssay data set” (2004)",
  "key": {"[1]": {"target": "Lysosomal acid glucosylceramidase (Homo sapiens, UniProt P04062)", "sequence (P04062 whole entry)": "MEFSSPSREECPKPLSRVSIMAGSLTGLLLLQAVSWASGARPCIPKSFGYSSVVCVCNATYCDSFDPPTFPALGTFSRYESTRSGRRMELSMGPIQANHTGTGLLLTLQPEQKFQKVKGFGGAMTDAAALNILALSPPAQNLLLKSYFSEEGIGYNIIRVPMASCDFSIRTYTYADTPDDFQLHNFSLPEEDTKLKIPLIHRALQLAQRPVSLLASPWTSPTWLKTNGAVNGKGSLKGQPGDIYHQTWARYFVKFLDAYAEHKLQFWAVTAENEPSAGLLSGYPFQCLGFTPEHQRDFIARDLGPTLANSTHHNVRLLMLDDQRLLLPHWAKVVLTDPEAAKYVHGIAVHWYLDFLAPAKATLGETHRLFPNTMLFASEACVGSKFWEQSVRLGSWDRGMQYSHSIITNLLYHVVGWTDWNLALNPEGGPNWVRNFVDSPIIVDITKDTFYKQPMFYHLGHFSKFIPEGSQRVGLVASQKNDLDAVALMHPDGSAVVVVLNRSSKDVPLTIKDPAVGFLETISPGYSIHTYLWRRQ", "experiment": "Dose response cell-based high throughput screening assay to identify enhancers of beta-glucosidase activity. [Related pubchem assays: 784 ]", "type": "functional"}, "Vero [2]": {"test_system": "Vero", "experiment": "host cell viability loss, Vero E6 – synthesized analogs, cytotoxicity control for West Nile virus antiviral project, SAR follow-up (AID 2244)", "type": "functional", "settings": "Chlorocebus sabaeus"}, "[3]": {"target": "T1, Neuropeptides B/W receptor type 1 (Homo sapiens, UniProt P48145)", "T1 sequence (P48145 whole entry)": "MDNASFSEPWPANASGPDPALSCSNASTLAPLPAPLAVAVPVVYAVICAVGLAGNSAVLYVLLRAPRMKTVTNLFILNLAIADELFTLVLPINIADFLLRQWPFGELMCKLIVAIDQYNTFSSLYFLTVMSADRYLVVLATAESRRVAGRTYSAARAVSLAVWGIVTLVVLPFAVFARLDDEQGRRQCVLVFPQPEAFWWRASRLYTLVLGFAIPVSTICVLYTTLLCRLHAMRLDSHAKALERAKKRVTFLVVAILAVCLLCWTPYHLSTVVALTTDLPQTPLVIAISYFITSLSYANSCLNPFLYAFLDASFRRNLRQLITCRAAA", "experiment": "Fluorescence-based dose response cell-based high throughput screening assay to identify antagonists of the G-protein coupled receptor 7 (GPR7). [Related pubchem assays: 1952 (Screening assay (GPR7 antagonists).), 1880 (Summary AID.)]", "type": "functional"}, "[4]": {"target": "Melanin-concentrating hormone receptor 1 (Homo sapiens, UniProt Q99705)", "sequence (Q99705 whole entry)": "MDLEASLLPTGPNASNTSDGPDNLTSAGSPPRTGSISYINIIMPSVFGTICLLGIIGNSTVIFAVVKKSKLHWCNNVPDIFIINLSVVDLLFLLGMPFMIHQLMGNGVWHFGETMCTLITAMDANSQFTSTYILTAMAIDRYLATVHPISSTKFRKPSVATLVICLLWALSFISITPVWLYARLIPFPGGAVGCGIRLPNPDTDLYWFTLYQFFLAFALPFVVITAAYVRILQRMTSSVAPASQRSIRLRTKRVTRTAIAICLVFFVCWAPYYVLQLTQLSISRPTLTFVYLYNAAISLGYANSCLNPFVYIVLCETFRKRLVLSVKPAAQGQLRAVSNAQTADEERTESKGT", "experiment": "Fluorescence-based counterscreen for antagonists of the G-protein coupled receptor 7 (GPR7): cell-based high throughput dose response assay to identify antagonists of the melanin-concentrating hormone receptor 1 (MCHR1).", "type": "functional"}, "[5]": {"experiment": "Trypanosoma cruzi growth suppression in host cells – NIH3T3 host cells, beta-gal luminescence, confirmation (AID 2044);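 also: intracellular parasites grown in NIH/3T3 mouse fibroblasts as host cells; luminescent beta-galactosidase reporter signal from transgenic T. cruzi replicating inside host cells; inhibitors lower the luminescence signal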", "type": "functional, cell-based"}, "[6]": {"experiment": "NIH3T3 cell viability loss – ATP luminescence, mouse fibroblasts, counter-screen, dose response (AID 2010);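 also: cells exposed to compound for about 90 hours before reading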", "type": "functional, cell-based"}, "HEK293 [7]": {"test_system": "HEK293", "experiment": "inhibition of NOD1-driven NF-kB reporter – cell-based, luminescence, uHTS, primary screen (AID 1578)", "type": "functional", "settings": "Homo sapiens"}, "HEK293 [8]": {"test_system": "HEK293", "experiment": "cells", "type": "functional, cell-based", "settings": "Homo sapiens"}, "[9]": {"target": "Transitional endoplasmic reticulum ATPase (Homo sapiens, UniProt P55072, C522A)", "sequence (P55072 2-806 C522A limits assumed)": "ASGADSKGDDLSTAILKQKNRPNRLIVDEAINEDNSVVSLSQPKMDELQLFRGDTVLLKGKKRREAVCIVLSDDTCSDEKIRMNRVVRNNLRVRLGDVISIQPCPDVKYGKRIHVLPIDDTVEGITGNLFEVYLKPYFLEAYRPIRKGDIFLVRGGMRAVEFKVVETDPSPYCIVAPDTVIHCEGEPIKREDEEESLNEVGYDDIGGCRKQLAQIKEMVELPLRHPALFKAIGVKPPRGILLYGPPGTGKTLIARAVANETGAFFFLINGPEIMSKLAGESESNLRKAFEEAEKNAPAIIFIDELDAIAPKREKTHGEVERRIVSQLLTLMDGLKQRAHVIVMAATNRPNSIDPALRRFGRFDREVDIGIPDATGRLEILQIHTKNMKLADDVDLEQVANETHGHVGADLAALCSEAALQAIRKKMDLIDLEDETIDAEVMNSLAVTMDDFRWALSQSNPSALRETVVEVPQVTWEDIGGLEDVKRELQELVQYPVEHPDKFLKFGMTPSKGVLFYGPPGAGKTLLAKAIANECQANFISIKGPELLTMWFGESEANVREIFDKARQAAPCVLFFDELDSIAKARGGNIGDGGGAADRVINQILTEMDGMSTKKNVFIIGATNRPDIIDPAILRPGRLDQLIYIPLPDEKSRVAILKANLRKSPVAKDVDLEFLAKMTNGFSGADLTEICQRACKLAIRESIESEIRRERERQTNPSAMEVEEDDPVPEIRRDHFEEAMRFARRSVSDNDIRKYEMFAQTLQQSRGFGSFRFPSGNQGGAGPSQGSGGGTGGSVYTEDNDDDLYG", "experiment": "C522A mutant p97 ATPase inhibitors, dose response, counter-screen for p97 inhibitor project, biochemical, luminescence (AID 1544)"}, "HEK293 [10]": {"test_system": "HEK293", "experiment": "cells", "type": "functional, cell-based", "settings": "Homo sapiens", "remark": "listed apart in the source"}, "[11]": {"experiment": "CCR5-tropic HIV-1 fusion blockers – cell-based, CCR5-tropic Env, dose response (AID 2279)", "type": "functional"}, "HEK293 [12]": {"test_system": "HEK293", "experiment": "NOD2 signaling inhibitors in MDP-stimulated cells, cell-based, uHTS, luminescence (AID 2001)", "type": "functional", "settings": "Homo sapiens"}, "[13]": {"target": "Transitional endoplasmic reticulum ATPase (Homo sapiens, UniProt P55072)", "sequence (P55072 whole entry)": "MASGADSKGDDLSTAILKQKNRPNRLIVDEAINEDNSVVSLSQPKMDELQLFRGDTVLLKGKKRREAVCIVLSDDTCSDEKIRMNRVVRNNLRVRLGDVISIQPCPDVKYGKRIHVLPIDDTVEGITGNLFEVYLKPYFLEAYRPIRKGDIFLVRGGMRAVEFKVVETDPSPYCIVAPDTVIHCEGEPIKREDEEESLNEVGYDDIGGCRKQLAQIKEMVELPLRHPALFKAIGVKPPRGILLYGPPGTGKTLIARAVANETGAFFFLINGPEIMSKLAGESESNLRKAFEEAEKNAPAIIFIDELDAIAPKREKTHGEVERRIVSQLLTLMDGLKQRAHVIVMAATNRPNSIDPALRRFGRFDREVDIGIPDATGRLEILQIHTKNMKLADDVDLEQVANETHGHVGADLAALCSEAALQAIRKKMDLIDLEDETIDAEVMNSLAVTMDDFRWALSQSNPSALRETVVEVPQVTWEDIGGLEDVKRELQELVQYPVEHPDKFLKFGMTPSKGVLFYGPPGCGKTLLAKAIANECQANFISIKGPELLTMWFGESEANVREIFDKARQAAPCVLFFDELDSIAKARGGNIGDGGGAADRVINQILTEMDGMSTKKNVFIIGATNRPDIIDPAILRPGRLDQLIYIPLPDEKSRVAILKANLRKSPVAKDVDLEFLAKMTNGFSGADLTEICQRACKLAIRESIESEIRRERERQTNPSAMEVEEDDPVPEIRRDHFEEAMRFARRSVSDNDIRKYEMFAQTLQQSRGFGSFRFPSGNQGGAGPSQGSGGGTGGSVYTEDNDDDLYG", "experiment": "p97 ATPase inhibitors, dose response, biochemical (AID 1534)"}, "[14]": {"target": "Induced myeloid leukemia cell differentiation protein Mcl-1 (Homo sapiens, UniProt Q07820)", "sequence (Q07820 whole entry)": "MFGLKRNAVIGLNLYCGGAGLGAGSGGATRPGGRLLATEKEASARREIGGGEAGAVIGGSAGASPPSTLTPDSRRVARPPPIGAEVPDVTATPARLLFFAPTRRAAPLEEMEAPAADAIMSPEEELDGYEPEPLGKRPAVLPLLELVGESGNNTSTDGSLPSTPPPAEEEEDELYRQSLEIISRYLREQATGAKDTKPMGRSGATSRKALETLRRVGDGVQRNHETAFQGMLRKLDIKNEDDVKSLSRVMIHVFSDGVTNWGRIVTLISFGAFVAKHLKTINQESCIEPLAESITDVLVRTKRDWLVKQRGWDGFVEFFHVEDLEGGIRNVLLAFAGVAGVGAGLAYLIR", "type": "functional"}, "Nonstructural protein 1": {"target": "Nonstructural protein 1 (Influenza A virus, UniProt Q194T2)", "sequence (Q194T2 whole entry)": "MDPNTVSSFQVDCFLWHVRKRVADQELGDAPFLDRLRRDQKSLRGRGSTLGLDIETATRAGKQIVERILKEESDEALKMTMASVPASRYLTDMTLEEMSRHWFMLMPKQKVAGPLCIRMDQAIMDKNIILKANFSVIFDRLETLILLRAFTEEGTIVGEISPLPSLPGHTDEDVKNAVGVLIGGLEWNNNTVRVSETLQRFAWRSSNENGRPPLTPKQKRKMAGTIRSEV", "type": "functional, Influenza A virus (A/California/07/2009(H1N1))"}, "Vero [15]": {"test_system": "Vero", "experiment": "viability of Vero cells under compound – cytotoxicity control for flavivirus capping enzyme inhibitors (AID 588742)", "type": "functional", "settings": "Chlorocebus sabaeus"}, "Genome polyprotein": {"target": "Genome polyprotein (dengue virus type 2, UniProt P29990)", "sequence (P29990 2492-3391 limits assumed)": "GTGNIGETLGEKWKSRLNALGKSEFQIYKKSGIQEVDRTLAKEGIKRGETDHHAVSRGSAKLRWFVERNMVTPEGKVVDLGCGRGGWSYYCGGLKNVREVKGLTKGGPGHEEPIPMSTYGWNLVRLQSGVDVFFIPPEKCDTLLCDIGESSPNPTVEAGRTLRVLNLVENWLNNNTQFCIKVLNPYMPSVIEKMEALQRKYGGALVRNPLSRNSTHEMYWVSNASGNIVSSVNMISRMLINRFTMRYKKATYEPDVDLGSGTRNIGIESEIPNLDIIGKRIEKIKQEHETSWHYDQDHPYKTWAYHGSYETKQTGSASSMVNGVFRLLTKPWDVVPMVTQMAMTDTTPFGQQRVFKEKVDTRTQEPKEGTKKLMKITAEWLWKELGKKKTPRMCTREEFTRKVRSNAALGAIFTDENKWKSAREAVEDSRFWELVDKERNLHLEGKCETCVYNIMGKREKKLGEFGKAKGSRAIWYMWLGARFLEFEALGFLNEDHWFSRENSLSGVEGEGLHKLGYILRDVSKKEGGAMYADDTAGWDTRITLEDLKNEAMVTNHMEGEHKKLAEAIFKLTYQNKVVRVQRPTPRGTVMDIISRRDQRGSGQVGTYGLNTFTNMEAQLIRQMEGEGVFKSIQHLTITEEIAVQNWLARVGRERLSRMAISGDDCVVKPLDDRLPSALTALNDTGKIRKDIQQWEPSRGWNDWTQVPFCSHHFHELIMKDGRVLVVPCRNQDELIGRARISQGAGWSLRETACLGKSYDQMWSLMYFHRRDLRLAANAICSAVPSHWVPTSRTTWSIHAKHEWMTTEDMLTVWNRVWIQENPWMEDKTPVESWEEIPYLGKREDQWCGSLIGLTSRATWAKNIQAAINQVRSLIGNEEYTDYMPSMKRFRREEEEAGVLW", "experiment": "flavivirus cap methylation enzyme inhibition – biochemical, confirmation dose response, primary screen (AID 588689)", "type": "functional"}, "[16]": {"target": "T2, Histone-lysine N-methyltransferase NSD2 (Homo sapiens, UniProt O96028)", "T2 sequence (O96028 whole entry)": "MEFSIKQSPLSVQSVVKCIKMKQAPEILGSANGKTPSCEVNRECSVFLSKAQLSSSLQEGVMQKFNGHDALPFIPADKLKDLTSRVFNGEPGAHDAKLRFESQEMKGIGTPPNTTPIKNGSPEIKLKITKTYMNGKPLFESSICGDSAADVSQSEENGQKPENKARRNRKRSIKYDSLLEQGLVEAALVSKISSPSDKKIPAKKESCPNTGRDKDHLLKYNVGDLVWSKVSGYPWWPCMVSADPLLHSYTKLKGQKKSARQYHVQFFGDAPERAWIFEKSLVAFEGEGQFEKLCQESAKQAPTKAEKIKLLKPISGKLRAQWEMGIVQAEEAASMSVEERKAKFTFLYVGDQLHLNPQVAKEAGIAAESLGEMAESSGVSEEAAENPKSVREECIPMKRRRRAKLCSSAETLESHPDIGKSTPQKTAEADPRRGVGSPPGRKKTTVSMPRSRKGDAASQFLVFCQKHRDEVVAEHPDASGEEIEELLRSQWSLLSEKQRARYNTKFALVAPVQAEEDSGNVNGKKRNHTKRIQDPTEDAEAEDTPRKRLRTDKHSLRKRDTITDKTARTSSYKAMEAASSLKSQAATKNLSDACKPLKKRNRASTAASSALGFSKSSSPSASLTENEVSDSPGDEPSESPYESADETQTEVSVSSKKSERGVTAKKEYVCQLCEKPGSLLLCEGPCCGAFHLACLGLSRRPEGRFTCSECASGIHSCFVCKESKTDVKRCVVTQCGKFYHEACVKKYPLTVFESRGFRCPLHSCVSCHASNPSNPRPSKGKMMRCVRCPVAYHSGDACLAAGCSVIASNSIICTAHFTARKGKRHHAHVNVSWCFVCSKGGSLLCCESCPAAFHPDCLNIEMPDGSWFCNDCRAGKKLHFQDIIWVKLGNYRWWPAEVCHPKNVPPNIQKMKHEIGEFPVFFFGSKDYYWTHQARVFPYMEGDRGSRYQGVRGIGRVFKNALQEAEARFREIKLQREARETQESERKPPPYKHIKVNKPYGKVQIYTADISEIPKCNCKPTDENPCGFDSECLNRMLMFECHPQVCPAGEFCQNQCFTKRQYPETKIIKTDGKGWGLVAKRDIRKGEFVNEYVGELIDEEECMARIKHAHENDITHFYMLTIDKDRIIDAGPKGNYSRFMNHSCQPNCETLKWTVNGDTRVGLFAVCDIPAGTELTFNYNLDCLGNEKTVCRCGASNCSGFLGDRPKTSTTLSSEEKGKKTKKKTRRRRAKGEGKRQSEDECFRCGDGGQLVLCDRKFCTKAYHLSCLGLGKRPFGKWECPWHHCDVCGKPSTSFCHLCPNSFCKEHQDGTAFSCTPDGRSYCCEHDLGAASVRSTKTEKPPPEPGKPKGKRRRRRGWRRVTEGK", "type": "biochemical"}, "[17]": {"target": "Cyclin-dependent kinase 5/CDK5 activator 1 (Homo sapiens, UniProt Q00535)", "sequence (Q00535 whole entry)": "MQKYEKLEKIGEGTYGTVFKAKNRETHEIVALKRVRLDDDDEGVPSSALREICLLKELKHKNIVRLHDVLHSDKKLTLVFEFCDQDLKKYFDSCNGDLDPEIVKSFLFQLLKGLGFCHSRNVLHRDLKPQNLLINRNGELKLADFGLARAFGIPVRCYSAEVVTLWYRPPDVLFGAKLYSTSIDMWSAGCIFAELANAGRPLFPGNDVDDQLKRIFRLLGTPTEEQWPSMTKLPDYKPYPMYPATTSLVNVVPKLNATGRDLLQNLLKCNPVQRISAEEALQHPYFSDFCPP", "sequence (Q15078 whole entry, further chain)": "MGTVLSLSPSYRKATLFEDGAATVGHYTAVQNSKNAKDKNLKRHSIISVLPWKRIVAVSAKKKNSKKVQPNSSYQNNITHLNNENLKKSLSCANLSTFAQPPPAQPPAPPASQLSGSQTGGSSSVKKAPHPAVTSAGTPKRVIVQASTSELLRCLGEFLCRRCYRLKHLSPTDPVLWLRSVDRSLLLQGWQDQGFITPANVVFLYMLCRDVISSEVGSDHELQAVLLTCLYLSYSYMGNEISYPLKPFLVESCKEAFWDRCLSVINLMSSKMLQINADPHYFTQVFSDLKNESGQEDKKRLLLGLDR", "experiment": "blockade of human CDK5 activity – biochemical, cherry-picked samples, set 2, dose response (AID 504545)"}},
  "note": "Active and inactive are the calls of the source.",
  "data": [
    {"smiles": "CCOC(=O)N1CCC2(CC1)C(C#N)=C(N)Oc1c2c(C)nn1-c1cccc(Cl)c1", "values": [
      {"measurement": "EC50", "setting": "[1]", "value": "> 10 µM (not active)"}
    ]},
    {"smiles": "COc1ccc(-c2csc(NC(=O)c3ccccc3F)n2)cc1", "values": [
      {"measurement": "CC50", "setting": "Vero [2]", "value": "> 40 µM (active)"}
    ]},
    {"smiles": "CC(C)C(=O)N1CCN(c2ccccc2NC(=O)c2ccc([N+](=O)[O-])o2)CC1", "values": [
      {"measurement": "IC50", "setting": "[3]", "value": "> 43.8 µM (not active)"},
      {"measurement": "IC50", "setting": "[4]", "value": "64.4 µM (not active)"},
      {"measurement": "EC50", "setting": "[5]", "value": "0.431 µM (active)"},
      {"measurement": "EC50", "setting": "[6]", "value": "> 60 µM (not active)"}
    ]},
    {"smiles": "CCn1nc([N+](=O)[O-])c(C(C#N)c2nc3cc(C(F)(F)F)ccc3s2)c(Cl)c1=O", "note": "(centres undefined)", "values": [
      {"measurement": "EC50", "setting": "HEK293 [7]", "value": "6.94 µM (active)"},
      {"measurement": "IC50", "setting": "HEK293 [8]", "value": "2.78 µM (active)"},
      {"measurement": "IC50", "setting": "[9]", "value": "> 50 µM (not active)"},
      {"measurement": "IC50", "setting": "HEK293 [10]", "value": "11 µM (active)"},
      {"measurement": "IC50", "setting": "[11]", "value": "11.9 µM (active)"},
      {"measurement": "IC50", "setting": "HEK293 [12]", "value": "3.47 µM (inactive)"},
      {"measurement": "IC50", "setting": "[13]", "value": "> 50 µM (not active)"},
      {"measurement": "IC50", "setting": "[14]", "value": "3.87 µM (active)"},
      {"measurement": "IC50", "setting": "Nonstructural protein 1", "value": "19.9 µM (active)"},
      {"measurement": "CC50", "setting": "Vero [15]", "value": "> 40 µM (active)"},
      {"measurement": "IC50", "setting": "Genome polyprotein", "value": "57.5 µM (active)"},
      {"measurement": "AC50", "setting": "[16]", "value": "19 µM (active)"}
    ]},
    {"smiles": "CC(C)n1cnc2c(Nc3cccc(F)c3)nc(NCCO)nc21", "values": [
      {"measurement": "AC50", "setting": "[17]", "value": "5.86 µM (active)"}
    ]}
  ]
}
